In US20140206681A1, “BTK INHIBITORS” (priority 2013, published 2014):

Assays:
[1] = target: T1, BTK enzyme (recombinant full-length BTK, hBTK) (Homo sapiens, UniProt Q06187); assay: BTK enzyme activity assay, LANCE TR-FRET; type: biochemical; conditions: 50 pM hBTK, 2 μM biotin-A5-peptide, 25 μM ATP; 60 min compound & enzyme incubation; read-out: IC50 BTK activity value
T1 construct: recombinant protein from baculovirus-transfected Sf9 cells: full-length BTK, 6HIS-tag cleaved; 6HIS (cleaved yes); made in house; host or cells: baculovirus-transfected Sf9 cells

[2] = system: HeLa cells; assay: [3H]Adenosine uptake functional cellular assay; type: cell-based; conditions: Homo sapiens, HeLa, accumulation of [3H]adenosine into HeLa cells; compound range 10 μM to […]; read-out: Adenosine uptake inhibition IC50
Procedure, shortened: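 Inhibition of adenosine uptake was measured in HeLa cells (ATCC CCL-2) by following accumulation of tritiated adenosine. Cells were kept overnight at 37° C. with 5% (v/v) CO2, then switched to 40 μL HBSS plus 5% (v/v) FBS. 20 μL of 500 nM [3H]adenosine was added, and uptake was counted on a Topcount NXT reader.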

T1 sequence (Q06187 whole entry): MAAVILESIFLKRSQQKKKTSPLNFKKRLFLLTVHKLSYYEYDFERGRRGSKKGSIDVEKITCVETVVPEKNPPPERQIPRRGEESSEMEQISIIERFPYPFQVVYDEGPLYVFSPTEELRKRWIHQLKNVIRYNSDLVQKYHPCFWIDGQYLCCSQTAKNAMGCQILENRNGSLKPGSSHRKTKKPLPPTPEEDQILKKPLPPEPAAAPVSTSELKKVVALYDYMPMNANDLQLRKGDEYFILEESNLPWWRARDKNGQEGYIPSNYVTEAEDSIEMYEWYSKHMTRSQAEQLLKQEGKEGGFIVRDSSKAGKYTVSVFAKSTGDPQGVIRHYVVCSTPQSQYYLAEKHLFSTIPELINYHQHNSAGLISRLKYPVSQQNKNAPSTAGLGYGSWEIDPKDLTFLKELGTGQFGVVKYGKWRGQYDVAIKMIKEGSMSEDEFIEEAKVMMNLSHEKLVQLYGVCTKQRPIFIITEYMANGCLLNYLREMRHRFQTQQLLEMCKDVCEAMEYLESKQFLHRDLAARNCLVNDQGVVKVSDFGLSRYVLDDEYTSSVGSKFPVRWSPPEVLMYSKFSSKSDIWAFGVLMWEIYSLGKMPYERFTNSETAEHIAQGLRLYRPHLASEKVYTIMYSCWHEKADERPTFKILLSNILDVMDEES

Row | SMILES | IC50 [1] [nM] | IC50 [2] [nM]
1 | Cn1nc(NC(=O)c2ccc(-c3nc([C@@H]4CC[C@H]5CCC(=O)N5C4)n4ccnc(N)c34)c(OC3CNC3)c2)cc1C(F)(F)F [Example 149, 4-{8-amino-3-[(6R,8aS)-3-oxooctahydroindolizin-6-yl]imidazo[1,5-a]pyrazin-1-yl}-3-(azetidin-3-yloxy)-N-[1-methyl-5-(trifluoromethyl)-1H-pyrazol-3-yl]benzamide] | 96.7 | ≥ 10000
2 | Cn1nc(NC(=O)c2cc(OC3CC3)c(-c3nc([C@@H]4CC[C@H]5CCC(=O)N5C4)n4c(Cl)cnc(N)c34)cc2F)cc1C(F)(F)F [Example 150, 4-{8-amino-5-chloro-3-[(6R,8aS)-3-oxooctahydroindolizin-6-yl]imidazo[1,5-a]pyrazin-1-yl}-5-(cyclopropyloxy)-2-fluoro-N-[1-methyl-5-(trifluoromethyl)-1H-pyrazol-3-yl]benzamide] | 1.8 | 2300
3 | CC(=O)Oc1cc(C(=O)Nc2cc(C(F)(F)F)ccn2)ccc1-c1nc([C@@H]2CC[C@H]3CCC(=O)N3C2)n2ccnc(N)c12 [Example 155, 2-{8-amino-3-[(6R,8aS)-3-oxooctahydroindolizin-6-yl]imidazo[1,5-a]pyrazin-1-yl}-5-{[4-(trifluoromethyl)pyridin-2-yl]carbamoyl}phenyl acetate] | 3.9 | 1530
4 | CC(=O)Nc1nccn2c([C@@H]3CC[C@H]4CCC(=O)N4C3)nc(-c3ccc(C(=O)Nc4cc(C(F)(F)F)ccn4)cc3O)c12 [Example 156, 4-{8-(acetylamino)-3-[(6R,8aS)-3-oxooctahydroindolizin-6-yl]imidazo[1,5-a]pyrazin-1-yl}-3-hydroxy-N-[4-(trifluoromethyl)pyridin-2-yl]benzamide] | 4.4 | 1750
5 | COCCN(C(=O)c1ccc(-c2nc([C@@H]3CC[C@H]4CCC(=O)N4C3)n3ccnc(N)c23)c(O)c1)c1cc(C(F)(F)F)ccn1 [Example 157, 4-{8-amino-3-[(6R,8aS)-3-oxooctahydroindolizin-6-yl]imidazo[1,5-a]pyrazin-1-yl}-3-hydroxy-N-(2-methoxyethyl)-N-[4-(trifluoromethyl)pyridin-2-yl]benzamide] | 292 | 1780
6 | COc1cc(C(=O)Nc2cc(C(F)(F)F)ccn2)ccc1-c1nc([C@@H]2CC[C@H]3CCC(=O)N3C2)n2c(F)cnc(N)c12 [Example 162, 4-{8-amino-5-fluoro-3-[(6R,8aS)-3-oxooctahydroindolizin-6-yl]imidazo[1,5-a]pyrazin-1-yl}-3-methoxy-N-[4-(trifluoromethyl)pyridin-2-yl]benzamide] | 1.3 | 1540
7 | CCOc1cc(C(=O)Nc2cc(C(F)(F)F)n(C)n2)ccc1-c1nc([C@@H]2CC[C@H]3CCC(=O)N3C2)n2c(F)cnc(N)c12 [Example 163, 4-{8-amino-5-fluoro-3-[(6R,8aS)-3-oxooctahydroindolizin-6-yl]imidazo[1,5-a]pyrazin-1-yl}-3-ethoxy-N-[1-methyl-5-(trifluoromethyl)-1H-pyrazol-3-yl]benzamide] | 3.1 | 2410
8 | CCOc1cc(C(=O)Nc2ncc(C)s2)ccc1-c1nc([C@@H]2CC[C@H]3CCC(=O)N3C2)n2c(F)cnc(N)c12 [Example 164, 4-{8-amino-5-fluoro-3-[(6R,8aS)-3-oxooctahydroindolizin-6-yl]imidazo[1,5-a]pyrazin-1-yl}-3-ethoxy-N-(5-methyl-1,3-thiazol-2-yl)benzamide] | 1.9 | 817
9 | Nc1ncc(F)n2c([C@@H]3CC[C@H]4CCC(=O)N4C3)nc(-c3ccc(C(=O)Nc4cc(C(F)(F)F)ccn4)cc3O)c12 [Example 165, 4-{8-amino-5-fluoro-3-[(6R,8aS)-3-oxooctahydroindolizin-6-yl]imidazo[1,5-a]pyrazin-1-yl}-3-hydroxy-N-[4-(trifluoromethyl)pyridin-2-yl]benzamide] | 2.3 | 1540

More lines, now with the values ahead:

Row | IC50 [1] [nM] | IC50 [2] [nM] | SMILES
10 | 0.75 | 1120 | CCOc1cc(C(=O)Nc2cc(C(F)(F)F)ccn2)c(F)cc1-c1nc([C@@H]2CC[C@H]3CCC(=O)N3C2)n2ccnc(N)c12 [Example 151, 4-{8-amino-3-[(6R,8aS)-3-oxooctahydroindolizin-6-yl]imidazo[1,5-a]pyrazin-1-yl}-5-ethoxy-2-fluoro-N-[4-(trifluoromethyl)pyridin-2-yl]benzamide]
11 | 1.3 | 1890 | CCOc1cc(C(=O)Nc2cc(C(F)(F)F)n(C)n2)c(F)cc1-c1nc([C@@H]2CC[C@H]3CCC(=O)N3C2)n2ccnc(N)c12 [Example 152, 4-{8-amino-3-[(6R,8aS)-3-oxooctahydroindolizin-6-yl]imidazo[1,5-a]pyrazin-1-yl}-5-ethoxy-2-fluoro-N-[1-methyl-5-(trifluoromethyl)-1H-pyrazol-3-yl]benzamide]
12 | 0.16 | 501 | Nc1ncc(Cl)n2c([C@@H]3CC[C@H]4CCC(=O)N4C3)nc(-c3ccc(C(=O)Nc4cc(C(F)(F)F)ccn4)cc3)c12 [Example 153, 4-{8-amino-5-chloro-3-[(6R,8aS)-3-oxooctahydroindolizin-6-yl]imidazo[1,5-a]pyrazin-1-yl}-N-[4-(trifluoromethyl)pyridin-2-yl]benzamide]
13 | 0.45 | 2070 | CCOc1cc(C(=O)Nc2ncc(C)s2)ccc1-c1nc([C@@H]2CC[C@H]3CCC(=O)N3C2)n2c(Cl)cnc(N)c12 [Example 158, 4-{8-amino-5-chloro-3-[(6R,8aS)-3-oxooctahydroindolizin-6-yl]imidazo[1,5-a]pyrazin-1-yl}-3-ethoxy-N-(5-methyl-1,3-thiazol-2-yl)benzamide]
14 | 0.63 | 1220 | CCOc1cc(C(=O)Nc2ncc(C)s2)ccc1-c1nc([C@@H]2CC[C@H]3CCC(=O)N3C2)n2ccnc(N)c12 [Example 159, 4-{8-amino-3-[(6R,8aS)-3-oxooctahydroindolizin-6-yl]imidazo[1,5-a]pyrazin-1-yl}-3-ethoxy-N-(5-methyl-1,3-thiazol-2-yl)benzamide]
15 | 0.28 | 290 | Nc1ncc(F)n2c([C@@H]3CC[C@H]4CCC(=O)N4C3)nc(-c3ccc(C(=O)Nc4cc(C(F)(F)F)ccn4)cc3)c12 [Example 160, 4-{8-amino-5-fluoro-3-[(6R,8aS)-3-oxooctahydroindolizin-6-yl]imidazo[1,5-a]pyrazin-1-yl}-N-[4-(trifluoromethyl)pyridin-2-yl]benzamide]
16 | 0.99 | 1540 | CCOc1cc(C(=O)Nc2cc(C(F)(F)F)ccn2)ccc1-c1nc([C@@H]2CC[C@H]3CCC(=O)N3C2)n2c(F)cnc(N)c12 [Example 161, 4-{8-amino-5-fluoro-3-[(6R,8aS)-3-oxooctahydroindolizin-6-yl]imidazo[1,5-a]pyrazin-1-yl}-3-ethoxy-N-[4-(trifluoromethyl)pyridin-2-yl]benzamide]
17 | 0.34 | 296 | Nc1ncc(F)n2c([C@@H]3CC[C@H]4CCC(=O)N4C3)nc(-c3ccc(C(=O)Nc4cc(C(F)(F)F)ccn4)cc3F)c12 [Example 166, 4-{8-amino-5-fluoro-3-[(6R,8aS)-3-oxooctahydroindolizin-6-yl]imidazo[1,5-a]pyrazin-1-yl}-3-fluoro-N-[4-(trifluoromethyl)pyridin-2-yl]benzamide]
